The values that follow come from patent US12227495B2, “Herbicidal compounds” (SYNGENTA CROP PROTECTION AG, priority 2018, dated 2025).

Common to all, as to assay type: in vivo
The test system of assay [1] is Ipomoea hederacea (IPOHE). The experiment in a line: Post-emergence herbicide test, glasshouse, percentage damage. Conditions: 1000 g/ha, evaluated after 13 days. Put shortly:
(§1)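 Percentage damage, recorded 13 days after treatment, is given as a five-point score (1=0-20%, 2=21-40%, 3=41-60%, 4=61-80%, 5=81-100%). Plants grown in soil pots under 24/16 °C, 14 h light and 65% humidity received a 500 g/ha spray (unless stated otherwise).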

In assay [2] the test system is Lolium perenne (LOLPE). The assay is described as above. The conditions noted are these: 1000 g/ha, evaluated after 13 days. Put shortly: as §1
Assay [3] has as its system Setaria faberi (SETFA). Described as above. Conditions: 1000 g/ha, evaluated after 13 days. Summed up: as §1
Assay [4] deals with Amaranthus retoflexus (AMARE). Described as above. Conditions: 1000 g/ha, evaluated after 13 days. Put shortly:
as §1

Assay [5] deals with Echinochloa crus-galli (ECHCG). The description is as above. Conditions: 1000 g/ha, evaluated after 13 days. Put shortly:
as §1

Assay [6] concerns Solanum nigrum (SOLNI). The assay is described as above. Conditions: 1000 g/ha, evaluated after 13 days. Put shortly:
as §1

Assay [7] relates to Ipomoea hederacea (IPOHE). The assay can be described thus: Pre-emergence herbicide test, glasshouse, percentage damage. Conditions: rate 1000 g/ha, evaluated after 13 days. Put shortly: as §1
The test system of assay [8] is Lolium perenne (LOLPE). The assay is described as above. The conditions noted are these: rate 1000 g/ha, evaluated after 13 days. Summed up:
as §1

Assay [9] concerns Setaria faberi (SETFA). The assay is described as above. The conditions noted are these: rate 1000 g/ha, evaluated after 13 days. Put shortly:
as §1

For assay [10], the system named is Amaranthus retoflexus (AMARE). Described as above. Conditions: rate 1000 g/ha, evaluated after 13 days. Summed up:
as §1

The test system of assay [11] is Echinochloa crus-galli (ECHCG). Described as above. Conditions: rate 1000 g/ha, evaluated after 13 days. Summed up:
as §1

Assay [12] concerns Solanum nigrum (SOLNI). The description is as above. The conditions noted are these: rate 1000 g/ha, evaluated after 13 days. Summed up:
as §1

Take `Fc1cccc(Oc2ncc(C(F)(F)F)cc2Cl)c1-c1cc(C(F)F)no1` [Compound A51]: the “percentage damage caused to the plant, IPOHE” value in [1] is listed as 1 (1=0-20%). Also, the “percentage damage caused to the plant, LOLPE” value in the assay on Lolium perenne (LOLPE) [2] is reported as 1 (1=0-20%). Further, the “percentage damage caused to the plant, SETFA” value in the assay with Setaria faberi (SETFA) [3] was 1 (1=0-20%). Moreover, the “percentage damage caused to the plant, AMARE” value in assay [4] was 4 (4=61-80%). The “percentage damage caused to the plant, ECHCG” value in assay [5] is on record as 1 (1=0-20%). Moreover, the “percentage damage caused to the plant, SOLNI” value in the assay on Solanum nigrum (SOLNI) [6] was 5 (5=81-100%). Moreover, in assay [7], the “Pre-emergence Test IPOHE percentage damage (five point scale)” value is given as 1 (1=0-20%). The “Pre-emergence Test LOLPE percentage damage (five point scale)” value with Lolium perenne (LOLPE) [8] is listed as 1 (1=0-20%). For the same molecule, the “Pre-emergence Test SETFA percentage damage (five point scale)” value in the assay with Setaria faberi (SETFA) [9] is 1 (1=0-20%). The “Pre-emergence Test AMARE percentage damage (five point scale)” value in assay [10] was 1 (1=0-20%). Moreover, the “Pre-emergence Test ECHCG percentage damage (five point scale)” value in [11] is 1 (1=0-20%). In addition, the “Pre-emergence Test SOLNI percentage damage (five point scale)” value in the assay with Solanum nigrum (SOLNI) [12] was 1 (1=0-20%).

Turning to `Cc1cccc(Oc2ncc(Cl)cc2F)c1-n1cc(C(F)(F)F)cn1` [Compound A54], the “percentage damage caused to the plant, IPOHE” value in [1] is listed as 1 (1=0-20%). The “percentage damage caused to the plant, LOLPE” value in the assay on Lolium perenne (LOLPE) [2] is 4 (4=61-80%). The “percentage damage caused to the plant, SETFA” value with Setaria faberi (SETFA) [3] is given as 5 (5=81-100%). In addition, the “percentage damage caused to the plant, AMARE” value in assay [4] was 3 (3=41-60%). Further, the “percentage damage caused to the plant, ECHCG” value in [5] is reported as 3 (3=41-60%). In the assay with Solanum nigrum (SOLNI) [6], the “percentage damage caused to the plant, SOLNI” value is listed as 5 (5=81-100%). In assay [7], the “Pre-emergence Test IPOHE percentage damage (five point scale)” value was 1 (1=0-20%). For the same molecule, the “Pre-emergence Test LOLPE percentage damage (five point scale)” value with Lolium perenne (LOLPE) [8] is recorded as 5 (5=81-100%). Moreover, the “Pre-emergence Test SETFA percentage damage (five point scale)” value with Setaria faberi (SETFA) [9] is given as 5 (5=81-100%). Further, in assay [10], the “Pre-emergence Test AMARE percentage damage (five point scale)” value is 5 (5=81-100%). Besides, in assay [11], the “Pre-emergence Test ECHCG percentage damage (five point scale)” value is 3 (3=41-60%). Moreover, in the assay with Solanum nigrum (SOLNI) [12], the “Pre-emergence Test SOLNI percentage damage (five point scale)” value was 5 (5=81-100%).

Consider `Fc1cccc(Oc2cccc(C(F)F)n2)c1-c1cc(C(F)F)no1` [Compound A55], for which the “percentage damage caused to the plant, IPOHE” value in assay [1] is 1 (1=0-20%). The “percentage damage caused to the plant, LOLPE” value in the assay on Lolium perenne (LOLPE) [2] is on record as 1 (1=0-20%). For the same molecule, the “percentage damage caused to the plant, SETFA” value in the assay on Setaria faberi (SETFA) [3] is listed as 2 (2=21-40%). Besides, the “percentage damage caused to the plant, AMARE” value in assay [4] is reported as 5 (5=81-100%). The “percentage damage caused to the plant, ECHCG” value in assay [5] is given as 1 (1=0-20%). In addition, in the assay with Solanum nigrum (SOLNI) [6], the “percentage damage caused to the plant, SOLNI” value is given as 5 (5=81-100%). For the same molecule, in [7], the “Pre-emergence Test IPOHE percentage damage (five point scale)” value was 1 (1=0-20%). Besides, the “Pre-emergence Test LOLPE percentage damage (five point scale)” value with Lolium perenne (LOLPE) [8] is 1 (1=0-20%). Moreover, the “Pre-emergence Test SETFA percentage damage (five point scale)” value with Setaria faberi (SETFA) [9] is 4 (4=61-80%). Besides, the “Pre-emergence Test AMARE percentage damage (five point scale)” value in assay [10] was 2 (2=21-40%). In addition, the “Pre-emergence Test ECHCG percentage damage (five point scale)” value in assay [11] is recorded as 1 (1=0-20%). Besides, the “Pre-emergence Test SOLNI percentage damage (five point scale)” value in the assay on Solanum nigrum (SOLNI) [12] was 2 (2=21-40%).

Turning to `Fc1cc(Cl)cnc1Oc1cccc(F)c1-n1cc(C(F)(F)F)cn1` [Compound A58], in assay [1], the “percentage damage caused to the plant, IPOHE” value is 5 (5=81-100%). Moreover, the “percentage damage caused to the plant, LOLPE” value with Lolium perenne (LOLPE) [2] was 5 (5=81-100%). Further, in the assay with Setaria faberi (SETFA) [3], the “percentage damage caused to the plant, SETFA” value is given as 5 (5=81-100%). Further, the “percentage damage caused to the plant, AMARE” value in assay [4] is on record as 5 (5=81-100%). For the same molecule, the “percentage damage caused to the plant, ECHCG” value in assay [5] is given as 4 (4=61-80%). In the assay on Solanum nigrum (SOLNI) [6], the “percentage damage caused to the plant, SOLNI” value is 5 (5=81-100%). For the same molecule, in [7], the “Pre-emergence Test IPOHE percentage damage (five point scale)” value is 5 (5=81-100%). Further, the “Pre-emergence Test LOLPE percentage damage (five point scale)” value with Lolium perenne (LOLPE) [8] is 5 (5=81-100%). Moreover, the “Pre-emergence Test SETFA percentage damage (five point scale)” value with Setaria faberi (SETFA) [9] is 5 (5=81-100%). Moreover, the “Pre-emergence Test AMARE percentage damage (five point scale)” value in [10] is on record as 5 (5=81-100%). For the same molecule, the “Pre-emergence Test ECHCG percentage damage (five point scale)” value in [11] is on record as 5 (5=81-100%). For the same molecule, in the assay on Solanum nigrum (SOLNI) [12], the “Pre-emergence Test SOLNI percentage damage (five point scale)” value is recorded as 5 (5=81-100%).

As to `Fc1cc(Cl)cnc1Oc1cccc(Br)c1-n1cc(C(F)(F)F)cn1` [Compound A59], the “percentage damage caused to the plant, IPOHE” value in assay [1] was 5 (5=81-100%). Moreover, the “percentage damage caused to the plant, LOLPE” value with Lolium perenne (LOLPE) [2] was 4 (4=61-80%). In the assay on Setaria faberi (SETFA) [3], the “percentage damage caused to the plant, SETFA” value was 5 (5=81-100%). The “percentage damage caused to the plant, AMARE” value in [4] was 5 (5=81-100%). Further, the “percentage damage caused to the plant, ECHCG” value in assay [5] is listed as 3 (3=41-60%). Further, the “percentage damage caused to the plant, SOLNI” value with Solanum nigrum (SOLNI) [6] is 5 (5=81-100%). Moreover, the “Pre-emergence Test IPOHE percentage damage (five point scale)” value in [7] is 2 (2=21-40%). In addition, the “Pre-emergence Test LOLPE percentage damage (five point scale)” value in the assay with Lolium perenne (LOLPE) [8] was 4 (4=61-80%). Further, the “Pre-emergence Test SETFA percentage damage (five point scale)” value with Setaria faberi (SETFA) [9] is recorded as 5 (5=81-100%). Moreover, the “Pre-emergence Test AMARE percentage damage (five point scale)” value in [10] is given as 5 (5=81-100%). Further, the “Pre-emergence Test ECHCG percentage damage (five point scale)” value in [11] is 2 (2=21-40%). Besides, in the assay on Solanum nigrum (SOLNI) [12], the “Pre-emergence Test SOLNI percentage damage (five point scale)” value is 5 (5=81-100%).
